Results on 22 molecules are retold here after patent US11434246B2, “EP4 antagonists” (Eisai R&D Management Co., Ltd., priority 2015, dated 2022).

For orientation: IC50 means the concentration that inhibits the measured activity by half.

The target of the assay is EP4 (Homo sapiens, UniProt P35408). The assay is described as follows: EP4 Antagonism by CRE-PLAP Reporter Assay (SE302 cells, PGE2-stimulated). It is filed as cell-based. Also on record: HEK293 cells express endogenous EP4; endogenous in cells; host or cells: SE302 (HEK293 clone with CRE-PLAP reporter). As to conditions: SE302 (HEK293) cells, 3 ng/mL PGE2, overnight; single or multiple assay average values. An excerpt: PGE2 and [^3H]-labelled PGE2 were purchased from Cayman Chemical (Ann Arbor, Mich.) and Perkin Elmer (Waltham, Mass.), respectively. Mouse breast 4T1 cells (CRL-2539) were obtained from American Tissue Culture Collection. SE302 cell line is a clone of the HEK293 cells containing cAMP response element (CRE) promoter that when activated drives secretion of placental-like alkaline phosphatase (PLAP). HEK293 cells express endogenous EP4 and show induction of PLAP in response to PGE2 and EP4 agonists, but not EP1, 2 or 3 agonists (Chen Q, Muramoto K, Masaaki N, Ding Y, Yang H, Mackey M, Li W, Inoue Y, Ackermann K, Shrota H, Matsumoto I, Spyvee M, Schiller S, Sumida T, Gusovsky F, and Lamphier M. A novel antagonist of the prostaglandin E2 EP4 receptor inhibits Th1 differentiation and Th17 expansion and is orally active in arthritis models. British J Pharmacol, 2010, 160: 292-310). BalB/C female mice at 7-8 week age were purchased from Jackson Laboratory (Bar Harbor, Me.). Mice were maintained under specific pathogen-free conditions.
EP4, sequence (P35408 whole entry): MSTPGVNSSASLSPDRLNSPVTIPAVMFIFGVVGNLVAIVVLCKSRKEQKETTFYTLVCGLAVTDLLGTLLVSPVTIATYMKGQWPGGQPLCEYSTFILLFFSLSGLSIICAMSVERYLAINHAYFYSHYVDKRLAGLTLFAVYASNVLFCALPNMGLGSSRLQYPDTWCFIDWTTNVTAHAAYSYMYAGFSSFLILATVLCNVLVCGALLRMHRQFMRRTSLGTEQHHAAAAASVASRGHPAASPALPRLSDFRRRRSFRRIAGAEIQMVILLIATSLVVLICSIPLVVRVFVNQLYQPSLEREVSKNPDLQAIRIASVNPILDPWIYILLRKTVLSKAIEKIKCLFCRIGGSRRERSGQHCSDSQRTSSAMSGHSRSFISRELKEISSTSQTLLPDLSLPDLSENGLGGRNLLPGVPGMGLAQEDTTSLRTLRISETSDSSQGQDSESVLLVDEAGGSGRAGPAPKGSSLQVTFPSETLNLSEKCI
EP4 Antagonism by CRE-PLAP Reporter Assay: SE302 cells were maintained in DMEM/F12 (50:50) (MediaTech) supplemented with 10% FBS (Tissue Culture Biologicals) plus penicillin/streptomycin. When used for assays, cells were plated in a 96-well plate at 2×10^4 cells/100 μL/well in serum-free assay medium (DMEM/F12 supplemented with 0.1% BSA plus penicillin/streptomycin) and incubated for 4-6 h. Cells were then stimulated with 3 ng/mL of PGE2 in the presence or absence of various concentrations of test compound overnight, and PLAP activity was measured by mixing 15 μL of culture supernatants with 75 μL of Lumi-phos (Lumigen, Inc.) and 60 μL of assay buffer containing 8 mmol/L MgSO4 in 0.1 mol/L carbonate-bicarbonate buffer pH11 in a new 96-well black plate and incubated for 2 h at room temperature. The intensity of luminescence, which reflected the PLAP activity in the supernatant, was quantified with an Envision 2101 Multilabel Reader. Values obtained from DMSO treated samples in the presence of PGE2 were defined as 100% of control, whereas values obtained from DMSO treated samples in the absence of PGE2 were defined as 0% of control. % of control for compound treated samples was calculated as follows: (actual reading−0% of control)/(100% of control−0% of control)×100. IC50 value for each individual experiment was calculated using GraphPad Prism 6.02 (Lake Forest, Calif.) with % of control values.
Compounds of the present invention were assayed according to the methods as described above, and IC50 values, which may be single assay values or multiple assay average values, are summarized in Table 1. Compounds marked “ABS” show absolute stereochemistry.
On the technique in general: In a reporter assay the amount or activity of a reporter protein is the signal.
For the molecule `C=Cc1nn2c(c1C(=O)N[C@@H](C)c1ccc(C(=O)O)cc1)N(Cc1cccc(C(F)(F)F)c1)CC2` [Compound 92, (S)-4-(1-(1-(3-(Trifluoromethyl)benzyl)-6-vinyl-2,3-dihydro-1H-imidazo[1,2-b]pyrazole-7-carboxamido)ethyl)benzoic Acid], it took 5.43 nM to reach half-maximal inhibition (IC50).

With `C[C@H](NC(=O)c1c(C(F)(F)F)nn2c1N(Cc1ccc(C(F)(F)F)cc1)CC2)c1ccc(-c2ccoc2)cc1` [Compound 40, (S)—N-(1-(4-(furan-3-yl)phenyl)ethyl)-6-(trifluoromethyl)-1-(4-(trifluoromethyl)benzyl)-2,3-dihydro-1H-imidazo[1,2-b]pyrazole-7-carboxamide], the IC50 was 150 nM. Take `C[C@H](NC(=O)c1c(C(F)(F)F)nn2c1N(Cc1ccc(C(F)(F)F)cc1)CC2)c1ccc(C2CC2)cc1` [Compound 57, (S)—N-(1-(4-cyclopropylphenyl)ethyl)-6-(trifluoromethyl)-1-(4-(trifluoromethyl)benzyl)-2,3-dihydro-1H-imidazo[1,2-b]pyrazole-7-carboxamide]: the 50% inhibitory concentration (IC50) is 310 nM. In turn, `C[C@H](NC(=O)c1c(C(F)(F)F)nn2c1N(Cc1ccc(Cl)c(Cl)c1)CC2)c1ccc(C(=O)O)cc1` [Compound 13, (S)-4-(1-(1-(3,4-dichlorobenzyl)-6-(trifluoromethyl)-2,3-dihydro-1H-imidazo[1,2-b]pyrazole-7-carboxamido)ethyl)benzoic Acid] returned an IC50 of 0.44 nM.

The molecule `C[C@H](NC(=O)c1c(C(F)(F)F)nn2c1N(Cc1cccc(C(F)(F)CO)c1)CC2)c1ccc(C(=O)O)cc1` [Compound 95, (S)-4-(1-(1-(3-(1,1-Difluoro-2-hydroxyethyl)benzyl)-6-(trifluoromethyl)-2,3-dihydro-1H-imidazo[1,2-b]pyrazole-7-carboxamido)ethyl)benzoic Acid] returned a half-maximal inhibitory concentration (IC50) of 4.26 nM. The figure for `C[C@H](NC(=O)c1c(C(F)(F)F)nn2c1N(Cc1cccc(C(F)(F)F)c1)CC2)c1ccc(-c2nn[nH]n2)cc1` [Compound 36, (S)—N-(1-(4-(2H-tetrazol-5-yl)phenyl)ethyl)-6-(trifluoromethyl)-1-(3-(trifluoromethyl)benzyl)-2,3-dihydro-1H-imidazo[1,2-b]pyrazole-7-carboxamide] is 0.31 nM; for `C[C@H](NC(=O)c1c(C(F)(F)F)nn2c1N(Cc1ccc(C(F)(F)F)cc1)CCC2)c1ccc(C(=O)O)cc1` [Compound 45, (S)-4-(1-(2-(trifluoromethyl)-4-(4-(trifluoromethyl)benzyl)-4,5,6,7-tetrahydropyrazolo[1,5-a]pyrimidine-3-carboxamido)ethyl)benzoic Acid] it is 1.15 nM; for `C[C@H](NC(=O)c1c(C(F)(F)F)nn2c1N(Cc1cc(N(C)C)cc(C(F)(F)F)c1)CC2)c1ccc(C(=O)O)cc1` [Compound 90, (S)-4-(1-(1-(3-(dimethylamino)-5-(trifluoromethyl)benzyl)-6-(trifluoromethyl)-2,3-dihydro-1H-imidazo[1,2-b]pyrazole-7-carboxamido)ethyl)benzoic Acid] it is 6.37 nM.

As to `C[C@H](NC(=O)c1c(C(F)(F)F)nn2c1N(Cc1ccc(CCCF)cc1)CC2)c1ccc(C(=O)O)cc1` [Compound 97, (S)-4-(1-(1-(4-(3-fluoropropyl)benzyl)-6-(trifluoromethyl)-2,3-dihydro-1H-imidazo[1,2-b]pyrazole-7-carboxamido)ethyl)benzoic Acid], the half-maximal inhibitory concentration (IC50) is 21.8 nM. Regarding `C[C@H](NC(=O)c1c(C(F)(F)F)nn2c1N(Cc1cccc(C(F)(F)F)c1)CC2)c1ccc(C(=O)O)nc1` [Compound 38, (S)-5-(1-(6-(trifluoromethyl)-1-(3-(trifluoromethyl)benzyl)-2,3-dihydro-1H-imidazo[1,2-b]pyrazole-7-carboxamido)ethyl)picolinic Acid], the IC50 came out at 17.1 nM. Next, `C[C@H](NC(=O)c1c(C(F)(F)F)nn2c1N(Cc1cccc(CCCF)c1)CC2)c1ccc(C(=O)O)cc1` [Compound 96, (S)-4-(1-(1-(3-(3-Fluoropropyl)benzyl)-6-(trifluoromethyl)-2,3-dihydro-1H-imidazo[1,2-b]pyrazole-7-carboxamido)ethyl)benzoic Acid]: 0.866 nM; `C[C@H](NC(=O)c1c(C(F)(F)F)nn2c1N(Cc1ccccc1C(F)(F)F)CCC2)c1ccc(C(=O)O)cc1` [Compound 46, (S)-4-(1-(2-(trifluoromethyl)-4-(2-(trifluoromethyl)benzyl)-4,5,6,7-tetrahydropyrazolo[1,5-a]pyrimidine-3-carboxamido)ethyl)benzoic Acid]: 100 nM; `C[C@H](NC(=O)c1c(C(F)(F)CO)nn2c1N(Cc1cccc(C(F)(F)F)c1)CC2)c1ccc(C(=O)O)cc1` [Compound 100, (S)-4-(1-(6-(1,1-Difluoro-2-hydroxyethyl)-1-(3-(trifluoromethyl)benzyl)-2,3-dihydro-1H-imidazo[1,2-b]pyrazole-7-carboxamido)ethyl)benzoic Acid]: 8.96 nM. Next, `C[C@H](NC(=O)c1c(C(F)(F)F)nn2c1N(Cc1cccc(C(F)(F)F)c1)CCC2)c1ccc(C(=O)O)cc1` [Compound 44, (S)-4-(1-(2-(trifluoromethyl)-4-(3-(trifluoromethyl)benzyl)-4,5,6,7-tetrahydropyrazolo[1,5-a]pyrimidine-3-carboxamido)ethyl)benzoic Acid]: 6.83 nM; `C[C@H](NC(=O)c1c(C(F)(F)F)nn2c1N(Cc1cccc(OC(F)(F)F)c1)CC2)c1ccc(C(=O)NS(=O)(=O)c2ccccc2)cc1` [Compound 54, (S)—N-(1-(4-((phenylsulfonyl)carbamoyl)phenyl)ethyl)-1-(3-(trifluoromethoxy)benzyl)-6-(trifluoromethyl)-2,3-dihydro-1H-imidazo[1,2-b]pyrazole-7-carboxamide]: 21.6 nM; `Cc1ccc(CN2CCn3nc(C(F)(F)F)c(C(=O)N[C@@H](C)c4ccc(C(=O)O)cc4)c32)cc1` [Compound 17, (S)-4-(1-(1-(4-methylbenzyl)-6-(trifluoromethyl)-2,3-dihydro-1H-imidazo[1,2-b]pyrazole-7-carboxamido)ethyl)benzoic Acid]: 1.65 nM.

Molecule `C[C@H](NC(=O)c1c(C(F)(F)F)nn2c1N(Cc1ccc(I)c(C(F)(F)F)c1)CC2)c1ccc(C(=O)O)cc1` [Compound 68, (S)-4-(1-(1-(4-iodo-3-(trifluoromethyl)benzyl)-6-(trifluoromethyl)-2,3-dihydro-1H-imidazo[1,2-b]pyrazole-7-carboxamido)ethyl)benzoic acid] returned a concentration for half-maximal inhibition (IC50) of 10.9 nM.

`C[C@H](NC(=O)c1c(C(F)(F)F)nn2c1N(Cc1cccc(C(F)(F)F)c1)C[C@H]2COCc1ccccc1)c1ccc(C(=O)O)cc1` [Compound 80, 4-((S)-1-((S)-3-((benzyloxy)methyl)-6-(trifluoromethyl)-1-(3-(trifluoromethyl)benzyl)-2,3-dihydro-1H-imidazo[1,2-b]pyrazole-7-carboxamido)ethyl)benzoic Acid]: the concentration for half-maximal inhibition (IC50) was determined as 58.1 nM. The figure for `C[C@H](NC(=O)c1c(C(F)(F)F)nn2c1N(Cc1cc(Cl)cc(Cl)c1)CC2)c1ccc(C(=O)O)cc1` [Compound 7, (S)-4-(1-(1-(3,5-dichlorobenzyl)-6-(trifluoromethyl)-2,3-dihydro-1H-imidazo[1,2-b]pyrazole-7-carboxamido)ethyl)benzoic Acid] is 0.32 nM; for `C[C@H](NC(=O)c1c(C(F)(F)F)nn2c1N(Cc1ccc(F)cc1)CC2)c1ccc(C(=O)O)cc1` [Compound 14, (S)-4-(1-(1-(4-fluorobenzyl)-6-(trifluoromethyl)-2,3-dihydro-1H-imidazo[1,2-b]pyrazole-7-carboxamido)ethyl)benzoic Acid] it is 0.58 nM. The figure for `Cc1nn2c(c1C(=O)NCc1ccc(C(=O)O)cc1)N(Cc1ccc(Cl)cc1)CC2` [Compound 33, 4-((1-(4-chlorobenzyl)-6-methyl-2,3-dihydro-1H-imidazo[1,2-b]pyrazole-7-carboxamido)methyl)benzoic Acid] is 27.6 nM. Next, `CCc1nn2c(c1C(=O)N[C@@H](C)c1ccc(C(=O)O)cc1)N(Cc1cccc(C(F)(F)F)c1)CC2` [Compound 59, (S)-4-(1-(6-ethyl-1-(3-(trifluoromethyl)benzyl)-2,3-dihydro-1H-imidazo[1,2-b]pyrazole-7-carboxamido)ethyl)benzoic acid]: 0.68 nM.
